Reference: the CheMixHub viscosity set

Test: xn = mol fraction of the nth substance listed

CC[N+](CC)(CC)CC.[OH-] + CS(C)=O
viscosity [mPa·s], 100 kPa
Settings	298.15 K	303.15 K	308.15 K	313.15 K
x1 = 0.0142	2.08	1.9	1.77	1.67
x1 = 0.0405	2.24	2.07	1.96	1.88
x1 = 0.0693	2.45	2.29	2.18	2.09
x1 = 0.0995	2.65	2.49	2.38	2.29
x1 = 0.1314	2.89	2.72	2.62	2.52
x1 = 0.165	3.11	2.95	2.84	2.76
x1 = 0.1925	3.29	3.12	3	2.92
x1 = 0.2381	3.57	3.41	3.3	3.24
x1 = 0.2988	3.9	3.75	3.66	3.58
x1 = 0.3654	4.23	4.1	4	3.95
x1 = 0.4134	4.45	4.34	4.22	4.18
x1 = 0.4647	4.66	4.56	4.45	4.41
x1 = 0.5486	4.94	4.85	4.73	4.71
x1 = 0.6421	5.17	5.08	4.96	4.92
x1 = 0.7106	5.37	5.17	5.02	5
x1 = 0.7848	5.3	5.2	5.03	4.99
x1 = 0.8653	5.23	5.12	4.96	4.89
x1 = 0.9531	5.08	4.89	4.67	4.54

C[Si](C)(C)O[Si](C)(C)O[Si](C)(C)O[Si](C)(C)O[Si](C)(C)O[Si](C)(C)C + C[Si](C)(C)O[Si](C)(C)O[Si](C)(C)O[Si](C)(C)C
Settings	viscosity [mPa·s]
298.15 K, 101 kPa, x1 = 0.413	1.738

CC(=O)OC(C)C + Cc1cc(C)cc(C)c1
308.15 K, 101 kPa
Settings	viscosity [mPa·s]
x2 = 0.09942	0.4428
x2 = 0.197	0.4556
x2 = 0.3029	0.4738
x2 = 0.3917	0.4812
x2 = 0.4993	0.5032
x2 = 0.5992	0.5127
x2 = 0.6918	0.5289
x2 = 0.7944	0.539
x2 = 0.9024	0.5596

CCCCBr + Cc1cc(C)cc(C)c1
308.15 K, 101 kPa
Settings	viscosity [mPa·s]
x2 = 0.0991	0.5234
x2 = 0.1968	0.5242
x2 = 0.3043	0.5299
x2 = 0.406	0.5323
x2 = 0.4969	0.5372
x2 = 0.5975	0.5416
x2 = 0.7014	0.5482
x2 = 0.7972	0.5513
x2 = 0.8984	0.5568

CC(=O)OC(C)C + Cc1ccc(C)cc1
viscosity [mPa·s], 101 kPa
Settings	303.15 K	308.15 K	313.15 K
x1 = 0.0984	0.554	–	0.502
x1 = 0.2017	0.541	–	0.489
x1 = 0.3126	0.527	–	0.476
x1 = 0.4038	0.515	–	0.465
x1 = 0.5039	0.505	–	0.455
x1 = 0.6015	0.495	–	0.446
x1 = 0.7028	0.487	–	0.437
x1 = 0.8113	0.477	–	0.427
x1 = 0.9523	0.464	–	0.417
x2 = 0.1061	–	0.4401	–
x2 = 0.2201	–	0.4568	–
x2 = 0.2975	–	0.4636	–
x2 = 0.3892	–	0.4726	–
x2 = 0.4985	–	0.4819	–
x2 = 0.5821	–	0.4898	–
x2 = 0.696	–	0.5019	–
x2 = 0.7973	–	0.5123	–
x2 = 0.8976	–	0.5215	–

CC(=O)OCC(C)C + Cc1ccc(C)cc1
viscosity [mPa·s], 101 kPa
Settings	x1 = 0.1104	x1 = 0.1976	x1 = 0.2789	x1 = 0.376	x1 = 0.4687	x1 = 0.5742	x1 = 0.6833	x1 = 0.7765	x1 = 0.8703	x1 = 0.9481
303.15 K	0.569	0.572	0.577	0.582	0.588	0.596	0.605	0.614	0.622	0.63
313.15 K	0.511	0.512	0.514	0.516	0.519	0.526	0.536	0.547	0.558	0.57

CCCCBr + Cc1ccc(C)cc1
308.15 K, 101 kPa
Settings	viscosity [mPa·s]
x2 = 0.1002	0.5174
x2 = 0.2	0.5139
x2 = 0.2996	0.5114
x2 = 0.3997	0.5104
x2 = 0.4329	0.5092
x2 = 0.6161	0.5084
x2 = 0.7006	0.5095
x2 = 0.7996	0.5107
x2 = 0.8946	0.5121

COCCO + Cc1ccc(C)cc1
viscosity [mPa·s], 101 kPa
Settings	298.15 K	308.15 K
x1 = 0.0528	0.626	0.549
x1 = 0.1469	0.654	0.57
x1 = 0.2507	0.696	0.601
x1 = 0.3484	0.746	0.639
x1 = 0.4499	0.812	0.688
x1 = 0.4999	0.85	0.716
x1 = 0.5542	0.897	0.75
x1 = 0.6493	0.994	0.82
x1 = 0.7508	1.122	0.913
x1 = 0.8478	1.274	1.021
x1 = 0.9556	1.488	1.17

CC(=O)OC(C)C + Cc1cccc(C)c1
viscosity [mPa·s], 101 kPa
Settings	x1 = 0.0998	x1 = 0.212	x1 = 0.3176	x1 = 0.4048	x1 = 0.5079	x1 = 0.6118	x1 = 0.7201	x1 = 0.8193	x1 = 0.9305
303.15 K	0.544	0.53	0.518	0.509	0.499	0.489	0.481	0.474	0.466
313.15 K	0.488	0.475	0.464	0.456	0.447	0.438	0.43	0.423	0.417

CC(=O)OCC(C)C + Cc1cccc(C)c1
viscosity [mPa·s], 101 kPa
Settings	x1 = 0.094	x1 = 0.1803	x1 = 0.2916	x1 = 0.3889	x1 = 0.4721	x1 = 0.5698	x1 = 0.6807	x1 = 0.7789	x1 = 0.8716	x1 = 0.9307
303.15 K	0.556	0.562	0.572	0.582	0.592	0.602	0.616	0.629	0.641	0.644
313.15 K	0.505	0.508	0.515	0.521	0.527	0.536	0.546	0.555	0.566	0.572

CCCC(=O)O + Cc1cccc(O)c1
viscosity [mPa·s], 101 kPa
Settings	x1 = 0.1119	x1 = 0.2209	x1 = 0.3191	x1 = 0.4306	x1 = 0.5314	x1 = 0.6298	x1 = 0.7257	x1 = 0.8194	x1 = 0.9108
298.15 K	10.28	8.292	6.808	5.408	4.362	3.51	2.822	2.272	1.845
308.15 K	6.028	5.153	4.446	3.724	3.137	2.619	2.167	1.782	1.471
318.15 K	4.743	4.158	3.662	3.14	2.707	2.316	1.957	1.621	1.293

CC(CC(C)(C)C)CC(C)(C)CC(C)(C)C (configuration not stated) + Cc1ccccc1
viscosity [mPa·s], 100 kPa
Settings	x2 = 0.4498	x2 = 0.7104	x2 = 0.8804
298.15 K	1.499	0.946	0.684
313.15 K	1.196	0.78	0.58

CCOC(=O)C(=O)OCC + Cc1ccccc1
viscosity [mPa·s], 101 kPa
Settings	303.15 K	313.15 K	323.15 K
x1 = 0.0804	0.5603	–	–
x1 = 0.1006	0.581	0.516	0.465
x1 = 0.1644	0.5912	–	–
x1 = 0.2019	0.651	0.578	0.514
x1 = 0.2523	0.6413	–	–
x1 = 0.3013	0.725	0.646	0.571
x1 = 0.3443	0.7072	–	–
x1 = 0.4005	0.811	0.712	0.628
x1 = 0.4403	0.7809	–	–
x1 = 0.502	0.907	0.788	0.691
x1 = 0.5414	0.8798	–	–
x1 = 0.6024	1.028	0.887	0.77
x1 = 0.6481	1.007	–	–
x1 = 0.6988	1.151	0.988	0.855
x1 = 0.7597	1.167	–	–
x1 = 0.7971	1.289	1.095	0.943
x1 = 0.8762	1.38	–	–
x1 = 0.8936	1.442	1.222	1.044

COCCO + Cc1ccccc1
viscosity [mPa·s]
Settings	298.15 K	303.15 K	308.15 K
101 kPa, x1 = 0.0586	0.571	–	0.512
101 kPa, x1 = 0.1696	0.617	–	0.545
101 kPa, x1 = 0.2421	0.654	–	0.571
101 kPa, x1 = 0.3513	0.719	–	0.618
101 kPa, x1 = 0.4555	0.796	–	0.674
101 kPa, x1 = 0.4987	0.833	–	0.7
101 kPa, x1 = 0.5515	0.882	–	0.736
101 kPa, x1 = 0.6515	0.99	–	0.814
101 kPa, x1 = 0.7487	1.118	–	0.905
101 kPa, x1 = 0.8495	1.279	–	1.021
101 kPa, x1 = 0.9558	1.49	–	1.17
101.33 kPa, x1 = 0.1311	–	0.566	–
101.33 kPa, x1 = 0.2283	–	0.608	–
101.33 kPa, x1 = 0.3137	–	0.645	–
101.33 kPa, x1 = 0.4277	–	0.716	–
101.33 kPa, x1 = 0.5253	–	0.784	–
101.33 kPa, x1 = 0.6244	–	0.87	–
101.33 kPa, x1 = 0.7116	–	0.954	–
101.33 kPa, x1 = 0.8018	–	1.057	–
101.33 kPa, x1 = 0.9149	–	1.219	–
